The values that follow are results of earlier work, collected in US20250137032A1, “TWO-COMPONENT SYSTEMS FOR USE IN CELL-FREE GENE EXPRESSION” (priority 2023, published 2025).

The conditions of the series: literature value, cited from earlier work; for Kc (kBT) (6): bending rigidity; for CPP (4): critical packing parameter; for Tm (7): membrane transition temperature, in °C (unit assumed).

On to `CCCCCCCC/C=C\CCCCCCCC(=O)O[C@H](COC(=O)CCCCCCCCCCCCCCC)COP(=O)([O-])OCC(O)CO.[Na+]` (mixture of isomers) [POPG, 1-palmitoyl-2-oleoyl-sn-glycero-3-phospho-(1′-rac-glycerol) (sodium salt)], for which the “Kc (kBT) (6)” value is 26.9 kBT, the “CPP (4)” value is recorded as 0.7, the “2 Dc (A) (2)” value is recorded as 27.9 A and the “Area (Å^2) (1)” value is given as 66 Å^2. The “C2:C2 (Å) (6)” value is 26.88 Å, the “DHH (Å) (2)” value was 38.5 Å, the “F (kcal/mol/Å) (6)” value is listed as 0.0036 kcal/mol/Å and the “Ka (dyn/cm) (6)” value is 180 dyn/cm. Moreover, the “Kc^PBM (6)” value is recorded as 5.67, the “Kg (10^−20 J) (6)” value is listed as −2.76 10^−20 J, the “Kg/Kc (6)” value was −0.24 and the “Kg^M (10^−20 J) (6)” value is −1.43 10^−20 J. In addition, the “Kg^M/Kc^M (6)” value is reported as −0.25, the “Ktw (10^−20 J) (6)” value was 1.05 10^−20 J, the “Kθ (10^−20 J/nm^2) (6)” value was 6.15 10^−20 J/nm^2 and the “Lipid Volume (A^3) (3)” value is 1226.6 A^3. The “P-C (Å) Head group thickness (6)” value is recorded as 10.61 Å, the “P:P (Å) (6)” value is on record as 37.49 Å, the “δ (Å) (6)” value is recorded as 9.57 Å and the “Tm (7)” value was −2.

Turning to `CCCCCCCCCCCCCC(=O)OC[C@H](COP(=O)([O-])OCC[N+](C)(C)C)OC(=O)CCCCCCCCCCCCC` [DMPC, 1,2-dimyristoyl-sn-glycero-3-phosphocholine], the “Kc (kBT) (6)” value is 29.3 kBT, the “CPP (4)” value is given as 1, the “2 Dc (A) (2)” value is recorded as 25.4 A and the “Area (Å^2) (1)” value is recorded as 60.6 Å^2. Besides, the “C2:C2 (Å) (6)” value is recorded as 24.54 Å, the “DHH (Å) (2)” value is listed as 35.3 Å, the “F (kcal/mol/Å) (6)” value was −0.0225 kcal/mol/Å and the “Ka (dyn/cm) (6)” value is 210 dyn/cm. Besides, the “Kc^PBM (6)” value is given as 5.75, the “Kg (10^−20 J) (6)” value is reported as −3.23 10^−20 J, the “Kg/Kc (6)” value was −0.26 and the “Kg^M (10^−20 J) (6)” value is reported as −1.32 10^−20 J. For the same molecule, the “Kg^M/Kc^M (6)” value is given as −0.22, the “Ktw (10^−20 J) (6)” value is listed as 2.18 10^−20 J, the “Kθ (10^−20 J/nm^2) (6)” value is reported as 4.02 10^−20 J/nm^2 and the “Lateral Pressure (pN/nm^2) (3)” value is recorded as 442 pN/nm^2. Further, the “Lipid Volume (A^3) (3)” value was 1100 A^3, the “P-C (Å) Head group thickness (6)” value was 11.11 Å, the “P:P (Å) (6)” value is 35.65 Å and the “Ro (Å) (6)” value is recorded as −47 Å. Moreover, the “γ chain (6)” value is given as 0.247, the “δ (Å) (6)” value is 9.48 Å and the “Tm (7)” value is listed as 24.

As to `CCCCCCCC/C=C\CCCCCCCC(=O)OC[C@H](COP(=O)([O-])OCC[N+](C)(C)C)OC(=O)CCCCCCC/C=C\CCCCCCCC` [DOPC, 1,2-dioleoyl-sn-glycero-3-phosphocholine], the “Kc (kBT) (6)” value was 28.8 kBT, the “CPP (4)” value is given as 1.09, the “2 Dc (A) (2)” value is on record as 28.8 A and the “Area (Å^2) (1)” value was 67.4 Å^2. In addition, the “C2:C2 (Å) (6)” value is 27.37 Å, the “DHH (Å) (2)” value is 36.7 Å, the “F (kcal/mol/Å) (6)” value is recorded as 0.061 kcal/mol/Å and the “Ka (dyn/cm) (6)” value is recorded as 290 dyn/cm. The “Kc^PBM (6)” value is on record as 9.71, the “Kg (10^−20 J) (6)” value is on record as −0.08 10^−20 J, the “Kg/Kc (6)” value was −0.01 and the “Kg^M (10^−20 J) (6)” value is −0.84 10^−20 J. Moreover, the “Kg^M/Kc^M (6)” value was −0.14, the “Ktw (10^−20 J) (6)” value is 0.99 10^−20 J, the “Kθ (10^−20 J/nm^2) (6)” value is reported as 6.4 10^−20 J/nm^2 and the “Lateral Pressure (pN/nm^2) (3)” value is 480 pN/nm^2. The “Lipid Volume (A^3) (3)” value was 1304.5 A^3, the “P-C (Å) Head group thickness (6)” value is given as 10.98 Å, the “P:P (Å) (6)” value is recorded as 38.35 Å and the “γ chain (6)” value is listed as 0.18(5) ·. The “δ (Å) (6)” value is 9.41 Å and the “Tm (7)” value is given as −17.

On to `CCCCCCCC/C=C\CCCCCCCC(=O)OC(COC(=O)CCCCCCCCCCCCCCC)COP(=O)([O-])OCC[N+](C)(C)C` (centres unmarked) [POPC, 1-palmitoyl-2-oleoyl-glycero-3-phosphocholine], for which the “Kc (kBT) (6)” value is recorded as 31.7 kBT, the “CPP (4)” value is given as 0.61, the “2 Dc (A) (2)” value is listed as 28.8 A and the “# of lipid contacts (5)” value is 2.75. Besides, the “Area (Å^2) (1)” value is reported as 64.3 Å^2, the “C2:C2 (Å) (6)” value was 27.52 Å, the “DHH (Å) (2)” value was 37 Å and the “F (kcal/mol/Å) (6)” value is 0.0303 kcal/mol/Å. Moreover, the “Ka (dyn/cm) (6)” value is listed as 280 dyn/cm, the “Kc^PBM (6)” value was 9.5, the “Kg (10^−20 J) (6)” value is on record as −1.38 10^−20 J and the “Kg/Kc (6)” value was −0.1. Moreover, the “Kg^M (10^−20 J) (6)” value is listed as −1.09 10^−20 J, the “Kg^M/Kc^M (6)” value is listed as −0.17, the “Ktw (10^−20 J) (6)” value is recorded as 1.45 10^−20 J and the “Kθ (10^−20 J/nm^2) (6)” value is reported as 5.52 10^−20 J/nm^2. Also, the “Lateral Pressure (pN/nm^2) (3)” value is recorded as 517 pN/nm^2, the “Lipid Volume (A^3) (3)” value is reported as 1231.2 A^3, the “P-C (Å) Head group thickness (6)” value is listed as 11.02 Å and the “P:P (Å) (6)” value is reported as 38.54 Å. Moreover, the “Ro (Å) (6)” value is given as −315 Å, the “γ chain (6)” value is recorded as 0.198, the “δ (Å) (6)” value was 9.64 Å and the “Tm (7)” value is on record as −9.

For the molecule `CCCCCCCC/C=C\CCCCCCCC(=O)O[C@H](COC(=O)CCCCCCCCCCCCCCC)COP(=O)(O)OCCN` [POPE, 1-palmitoyl-2-oleoyl-sn-glycero-3-phosphoethanolamine], the “Kc (kBT) (6)” value is reported as 31.2 kBT, the “CPP (4)” value is 1.08, the “2 Dc (A) (2)” value is 32.6 A and the “# of lipid contacts (5)” value is listed as 1.5. Further, the “Area (Å^2) (1)” value is 56.6 Å^2, the “C2:C2 (Å) (6)” value is given as 30.67 Å, the “DHH (Å) (2)” value is recorded as 43.4 Å and the “F (kcal/mol/Å) (6)” value is recorded as 0.2041 kcal/mol/Å. Besides, the “Ka (dyn/cm) (6)” value is listed as 260 dyn/cm, the “Kc^PBM (6)” value is 10.78, the “Kg (10^−20 J) (6)” value is 5.85 10^−20 J and the “Kg/Kc (6)” value is recorded as 0.44. Moreover, the “Kg^M (10^−20 J) (6)” value is listed as 0.06 10^−20 J, the “Kg^M/Kc^M (6)” value is on record as 0.01, the “Ktw (10^−20 J) (6)” value is 2.36 10^−20 J and the “Kθ (10^−20 J/nm^2) (6)” value is 8.04 10^−20 J/nm^2. The “Lateral Pressure (pN/nm^2) (3)” value is recorded as 456 pN/nm^2, the “Lipid Volume (A^3) (3)” value is listed as 1176.8 A^3, the “P-C (Å) Head group thickness (6)” value was 10.88 Å and the “P:P (Å) (6)” value was 41.55 Å. In addition, the “Ro (Å) (6)” value was −2220 Å, the “γ chain (6)” value is on record as 0.188, the “δ (Å) (6)” value is listed as 10.12 Å and the “Tm (7)” value is 25.
